From patent EP0428132A1, “Pradimicin derivatives” (Bristol-Myers Squibb Company, priority 1989, dated 1991)
≈ marks a conversion by molar mass, not a printed value. Like-named read-outs stand apart in the source and are kept apart here. Marks after values point to notes of the source that are not given here.

Tests used:
[1] = system: Candida tropicalis A25812; assay: In vitro antifungal activity, serial agar dilution method (Table 1a); format: cell-based
Experimental: (§1) The inoculum size was adjusted to 10⁶ cells/ml, and a volume of approximately 0.003 ml of fungal suspension was applied to the surface of the antibiotic containing agar plates with a multiinoculator. After incubation, the lowest concentration of antibiotic causing virtually complete inhibition of fungal growth was determined as the minimum inhibitory concentration (MIC).

[2] = system: Candida paratropicalis A25825; assay: as above; format: cell-based
Experimental: as §1

Candida albicans A25578 = assay: as above; format: cell-based
Experimental: as §1

[3] = system: Trichophyton mentagrophytes A26771; assay: as above; format: cell-based
Experimental: as §1

[4] = system: Candida pseudotropicalis A25802; assay: as above; format: cell-based; conditions: Kluyveromyces marxianus, YM agar (pH 7.0, Difco), 30°C for 2 days (yeast) or 4 days (filamentous fungi), read-out: MICs, Candida pseudotropicalis A25802
Experimental: as §1

Candida albicans A9540 [5] = assay: as above; format: cell-based
Experimental: as §1

[6] = system: Cryptococcus neoformans A15053; assay: as above; format: cell-based
Experimental: as §1

[7] = system: Trichophyton rubrum A26761; assay: as above; format: cell-based; conditions: A26761, pH 7, read-out: MICs, Trichophyton rubrum A26761
Experimental: as §1

M. canis A26834 = assay: In vitro antifungal activity, serial agar dilution method (Table 1a, footnote strain 5); format: cell-based; conditions: Microsporum canis, A26834, pH 7, read-out: MICs, M. canis A26834
Experimental: as §1

[8] = Water solubility, protocol I (PBS, HPLC); format: physicochemical; conditions: Method I: PBS without CaCl₂ and MgCl₂.6H₂O
Experimental: The supernatant (2 µL) was analyzed by HPLC using the conditions specified for each compound in the Experimental Section. […] When not soluble, an additional amount of PBS (x µL) was added, sonicated, and centrifuged. When visibly soluble, the solution (2 µL) was injected to HPLC and the peak area was used for the known concentration of the sample.

M. gypseum A26835 = assay: In vitro antifungal activity, serial agar dilution method (Table 1a, footnote strain 4); format: cell-based, Microsporum gypseum; conditions: Nannizzia gypsea
Experimental: as §1

Candida albicans A9540 [9] = assay: Intravenous Candida albicans infection mouse model, Table 2 part B; format: in vivo, mice
Experimental: Several compounds were also evaluated in an intravenous Candida albicans […] infection mouse model. The test organism was suspended in saline approximately 10 times the median lethal dose of the fungus (10⁶ cells/mouse) were used to infect intravenously male ICR mice weighing 20 to 24 g. Groups of five mice at each dose level were given the test compounds intravenously or intramuscularly. The 50% protective dose (PD₅₀) was calculated from survival rates recorded 20 or 21 days after the fungal challenge. […]

[10] = system: Saccharomyces cerevisiae A25803; assay: In vitro antifungal activity, serial agar dilution method (Table 1a); format: cell-based; conditions: YM agar (pH 7.0, Difco), 30°C for 2 days (yeast) or 4 days (filamentous fungi), read-out: MICs, Saccharomyces cerevisiae A25803
Experimental: as §1

[11] = system: Candida tropicalis A25809; assay: as above; format: cell-based; conditions: YM agar (pH 7.0, Difco), 30°C for 2 days (yeast) or 4 days (filamentous fungi), read-out: MICs, Candida tropicalis A25809
Experimental: as §1

[12] = system: Microsporum canis WW10218; assay: as above; format: cell-based; conditions: WW10218, pH 7, read-out: MICs, Microsporum canis WW10218
Experimental: as §1

[13] = system: Microsporum gypseum WW1107; assay: as above; format: cell-based; conditions: Nannizzia gypsea, YM agar (pH 7.0, Difco), 30°C for 2 days (yeast) or 4 days (filamentous fungi), read-out: MICs, Microsporum gypseum WW1107
Experimental: as §1

[14] = Part B: route IV, at 1 and 3.5 hrs after infection and twice on the following day, 21 days after fungal challenge, method of Spearman-Karber, male ICR mice
[15] = A25812, YM agar (pH 7.0, Difco), 30°C for 2 days (yeast) or 4 days (filamentous fungi), read-out: MICs, Candida tropicalis A25812
[16] = YM agar (pH 7.0, Difco), 30°C for 2 days (yeast) or 4 days (filamentous fungi), read-out: MICs, Candida paratropicalis A25825
[17] = A25578, YM agar (pH 7.0, Difco), 30°C for 2 days (yeast) or 4 days (filamentous fungi), read-out: MICs, Candida albicans A25578
[18] = A26771, YM agar (pH 7.0, Difco), 30°C for 2 days (yeast) or 4 days (filamentous fungi), read-out: MICs, Trichophyton mentagrophytes A26771
[19] = A9540, YM agar (pH 7.0, Difco), 30°C for 2 days (yeast) or 4 days (filamentous fungi), read-out: MICs, Candida albicans A9540
[20] = A15053, YM agar (pH 7.0, Difco), 30°C for 2 days (yeast) or 4 days (filamentous fungi), read-out: MICs, Cryptococcus neoformans A15053

Row | Compound | MIC [4] | MIC [7] | solubility [8] | MIC [1, 15] | MIC [2, 16] | MIC (Candida albicans A25578; [17]) | MIC [3, 18] | MIC [10] | MIC [11] | MIC [12] | MIC (Candida albicans A9540 [5]; [19]) | MIC [6, 20] | MIC [13] | PD₅₀ (Candida albicans A9540 [9]; mouse, in vivo) | other results
1 | CNC(=O)N(C)[C@@H]1[C@H](O)[C@@H](O)[C@H](O[C@H]2c3cc(C)c(C(=O)N[C@H](C)C(=O)O)c(O)c3-c3c(cc4c(c3O)C(=O)c3cc(OC)cc(O)c3C4=O)[C@@H]2O)O[C@@H]1C [Ex. 18, N-(N-methylcarbamoyl) pradimicin B] | 3.2 µg/mL (≈ 4.18 µM) | > 50 µg/mL | 4000 µg/mL (≈ 5220 µM) |  |  |  |  |  |  |  |  |  |  |  | MIC ([1]; A25812, pH 7, read-out: MICs, Candida tropicalis A25812): 25 µg/mL (≈ 32.6 µM); MIC ([2]; pH 7, read-out: MICs, Candida paratropicalis A25825): 25 µg/mL (≈ 32.6 µM); MIC (Candida albicans A25578; A25578, pH 7, read-out: MICs, Candida albicans A25578): 25 µg/mL (≈ 32.6 µM); MIC ([3]; A26771, pH 7, read-out: MICs, Trichophyton mentagrophytes A26771): > 50 µg/mL; MIC (Candida albicans A9540 [5]; A9540, pH 7, read-out: MICs, Candida albicans A9540): 25 µg/mL (≈ 32.6 µM); MIC ([6]; A15053, pH 7, read-out: MICs, Cryptococcus neoformans A15053): > 50 µg/mL; MIC (M. canis A26834): > 50 µg/mL; MIC (M. gypseum A26835; A26835, pH 7, read-out: MICs, M. gypseum A26835): > 50 µg/mL
2 | CN[C@@H]1[C@H](O)[C@@H](O)[C@H](O[C@H]2c3cc(C)c(C(=O)N[C@H](C)C(=O)O)c(O)c3-c3c(cc4c(c3O)C(=O)c3cc(OC)cc(O)c3C4=O)[C@@H]2O)O[C@@H]1C [Pradimicin B, reference compound] | 0.8 µg/mL (≈ 1.13 µM) | 3.2 µg/mL (≈ 4.52 µM) | 70 µg/mL (≈ 98.8 µM) | 3.2 µg/mL (≈ 4.52 µM) | 3.2 µg/mL (≈ 4.52 µM) | 1.6 µg/mL (≈ 2.26 µM) | 3.2 µg/mL (≈ 4.52 µM) | 0.8 µg/mL (≈ 1.13 µM) | 0.8 µg/mL (≈ 1.13 µM) | 3.2 µg/mL (≈ 4.52 µM) | 3.2 µg/mL (≈ 4.52 µM) | 0.8 µg/mL (≈ 1.13 µM) | 12.5 µg/mL (≈ 17.6 µM) |  | PD₅₀ (Candida albicans A9540 [9]; Part B: route IM, at 1 and 3.5 hrs after infection and twice on the following day, 21 days after fungal challenge, method of Spearman-Karber, male ICR mice): >50 mg/kg; PD₅₀ (Candida albicans A9540 [9]; [14]): 32 mg/kg
3 | COc1cc(O)c2c(c1)C(=O)c1c(cc3c(c1O)-c1c(cc(C)c(C(=O)N[C@H](C)C(=O)O)c1O)[C@H](O[C@@H]1O[C@H](C)[C@H](N(C)Cc4ccccc4)[C@H](O[C@@H]4OC[C@@H](O)[C@H](O)[C@H]4O)[C@H]1O)[C@H]3O)C2=O [Ex. 24, N-(Benzyl) pradimicin A] | 12.5 µg/mL (≈ 13.4 µM) | 3.2 µg/mL (≈ 3.44 µM) |  | > 50 µg/mL | > 50 µg/mL | > 50 µg/mL | 3.2 µg/mL (≈ 3.44 µM) |  |  |  | > 50 µg/mL | 1.6 µg/mL (≈ 1.72 µM) |  |  | MIC (M. canis A26834): 25 µg/mL (≈ 26.9 µM); MIC (M. gypseum A26835; A26835, strain per footnote **4, YM agar (pH 7.0, Difco), 30°C for 2 days (yeast) or 4 days (filamentous fungi), read-out: MICs, M. gypseum A26835): 50 µg/mL (≈ 53.7 µM)
4 | COc1cc(O)c2c(c1)C(=O)c1c(cc3c(c1O)-c1c(cc(C)c(C(=O)N[C@H](C)C(=O)O)c1O)[C@H](O[C@@H]1O[C@H](C)[C@H](N(C)CC(N)=O)[C@H](O)[C@H]1O)[C@H]3O)C2=O [Ex. 5, N-(carbamoylmethyl) pradimicin B] | 0.8 µg/mL (≈ 1.04 µM) | 1.6 µg/mL (≈ 2.09 µM) | > 4000 µg/mL | 3.2 µg/mL (≈ 4.18 µM) | 3.2 µg/mL (≈ 4.18 µM) | 0.8 µg/mL (≈ 1.04 µM) | 1.6 µg/mL (≈ 2.09 µM) | 0.8 µg/mL (≈ 1.04 µM) | 0.8 µg/mL (≈ 1.04 µM) | 1.6 µg/mL (≈ 2.09 µM) | 3.2 µg/mL (≈ 4.18 µM) | 0.8 µg/mL (≈ 1.04 µM) | 3.2 µg/mL (≈ 4.18 µM) |  | PD₅₀ (Candida albicans A9540 [9]; [14]): >50** mg/kg
5 | COc1cc(O)c2c(c1)C(=O)c1c(cc3c(c1O)-c1c(cc(C)c(C(=O)N[C@H](C)C(=O)O)c1O)[C@H](O[C@@H]1O[C@H](C)[C@H](N(C)CC(=O)O)[C@H](O)[C@H]1O)[C@H]3O)C2=O [Ex. 4, N-carboxymethyl pradimicin B] | 1.6 µg/mL (≈ 2.09 µM) | 12.5 µg/mL (≈ 16.3 µM) | > 10000 µg/mL | 3.2 µg/mL (≈ 4.17 µM) | 3.2 µg/mL (≈ 4.17 µM) | 1.6 µg/mL (≈ 2.09 µM) | 12.5 µg/mL (≈ 16.3 µM) | 0.8 µg/mL (≈ 1.04 µM) | 1.6 µg/mL (≈ 2.09 µM) | 6.3 µg/mL (≈ 8.22 µM) | 3.2 µg/mL (≈ 4.17 µM) | 1.6 µg/mL (≈ 2.09 µM) | 25 µg/mL (≈ 32.6 µM) | >50** mg/kg | 
6 | C#CCN(C)[C@@H]1[C@H](O)[C@@H](O)[C@H](O[C@H]2c3cc(C)c(C(=O)N[C@H](C)C(=O)O)c(O)c3-c3c(cc4c(c3O)C(=O)c3cc(OC)cc(O)c3C4=O)[C@@H]2O)O[C@@H]1C [Ex. 23, N-(Propargyl) pradimicin B] | 1.6 µg/mL (≈ 2.14 µM) | 25 µg/mL (≈ 33.5 µM) | 500 µg/mL (≈ 670 µM) | 50 µg/mL (≈ 67 µM) | > 50 µg/mL | 1.6 µg/mL (≈ 2.14 µM) | 25 µg/mL (≈ 33.5 µM) | 0.8 µg/mL (≈ 1.07 µM) | 1.6 µg/mL (≈ 2.14 µM) | 25 µg/mL (≈ 33.5 µM) | 50 µg/mL (≈ 67 µM) | 1.6 µg/mL (≈ 2.14 µM) | 50 µg/mL (≈ 67 µM) | >50 mg/kg | 
7 | C=CCN(C)[C@@H]1[C@H](O)[C@@H](O)[C@H](O[C@H]2c3cc(C)c(C(=O)N[C@H](C)C(=O)O)c(O)c3-c3c(cc4c(c3O)C(=O)c3cc(OC)cc(O)c3C4=O)[C@@H]2O)O[C@@H]1C [Ex. 21, N-(Allyl) pradimicin B] | 0.8 µg/mL (≈ 1.07 µM) | 3.2 µg/mL (≈ 4.27 µM) | 2000 µg/mL (≈ 2670 µM) | 6.3 µg/mL (≈ 8.41 µM) | 6.3 µg/mL (≈ 8.41 µM) | 0.8 µg/mL (≈ 1.07 µM) | 3.2 µg/mL (≈ 4.27 µM) | 0.8 µg/mL (≈ 1.07 µM) | 1.6 µg/mL (≈ 2.14 µM) | 3.2 µg/mL (≈ 4.27 µM) | 3.2 µg/mL (≈ 4.27 µM) | 1.6 µg/mL (≈ 2.14 µM) | 12.5 µg/mL (≈ 16.7 µM) | >50 mg/kg | 
